Data on four compounds can be found in patent US9333264B2, “Biocompatible polymeric nanoparticles degrade and release cargo in response to biologically relevant levels of hydrogen peroxide” (The Regents of the University of California, priority 2013, dated 2016).

A short description of data set [1]: Effect of H2O2 on the fluorescence of Nile red. Type of data set: physicochemical. Conditions: 72 h incubation with 1 mM hydrogen peroxide. As for the experimental part: The fluorescence of the dye was quenched in aqueous environments, enabling use as a model compound to indicate small molecule release from the hydrophobic nanoparticle interior. Prior to the evaluation of controlled release from our materials, the stability of Nile Red fluorescence in hydrogen peroxide was tested to ensure that the fluorescence quenching observed is not a result of Nile Red exposure to hydrogen peroxide.
Nile red solutions of three different concentrations in acetone were prepared (10, 40, 160 ng/mL). Polymer 1 was dissolved in the Nile red solutions (polymer concentration in all Nile red solutions were constant at 125 μg/mL). Hydrogen peroxide was added to these solutions (concentration in Nile red solutions was constant at 1 mM). Changes in Nile red fluorescence were monitored over a 72 h period using the same instrument settings as reported previously. These experiments were run in duplicate.

The conditions of data set [2]: cited from earlier work.
The next data set deals with dMPRO cells. The data set is described as follows: Extracellular hydrogen peroxide produced by neutrophils. In kind it is cell-based, mouse. Conditions: 1.6×10^6 dMPRO cells, after 6 h of PMA treatment. The method, then: Activated neutrophils generate high ROS. Extracellular hydrogen peroxide produced by neutrophils (differentiated mouse promyleocytes or dMPRO cells) with and without PMA (phorbol 12 myristate 13 acetate) stimulation was measured.
After 6 h of PMA treatment, 1.6×10^6 dMPRO cells produced 6.5 μM H2O2, while untreated cells produced 4.5 μM H2O2. These extracellular levels of H2O2 were much lower than the levels previously seen for Polymer 2, however the concentration of H2O2 inside neutrophil granules appear to be much higher. Fluorescein diacetate (FDA), a non-fluorescent molecule which is cleaved to fluorescein (Ex490/Em520) by cellular esterases, was chosen for the release assay.

The next data set concerns Raw264.7 macrophages. As to the kind of experiment: ApoTox-Glo assay of viability, cytotoxicity and apoptosis. Conditions: staurosporine 5 μM for 5 h; Triton X-100 0.1% for 15 min. As for the experimental part: In addition, this assay also measures caspase 3/7 activity as a readout for apoptosis (see, FIGS. 7A-7D). […] Staurosporine and 0.1% Triton-X 100 were used as positive controls for induction of apoptosis and cell death, respectively.
Raw264.7 cells were seeded on a 96-well plate at a density of 15000 cells per well. […] The particles were incubated for 5, 24 and 48 h.
Apoptosis (positive control) was induced by addition of staurosporine (5 μM final concentration), followed by incubation for at 37° C. for 5 h. Cytotoxicity (positive control) was induced by addition of triton X-100 (0.1% final concentration), followed by incubation at 37° C. for 15 min. Viability, cytotoxicity and apoptosis were measured using ApoTox-Glo™ assay (Promega) as per manufacturer's protocol. Datasets for each concentration and controls were collected in quadruplicates.

As for `CCN(CC)c1ccc2nc3c4ccccc4c(=O)cc-3oc2c1` [Nile red], the “change of Nile Red fluorescence” value in data set [1] is recorded as “did not change significantly”. Moreover, in data set [2], the “solubility in aqueous media” value was under 1 µg/mL.

With `CCCCCCCCCCCCCC(=O)O[C@@H]1[C@@H](C)[C@@]2(O)[C@@H](C=C(CO)C[C@]3(O)C(=O)C(C)=C[C@@H]23)[C@@H]2C(C)(C)[C@]12OC(C)=O` [PMA, phorbol 12 myristate 13 acetate], the “extracellular H2O2 produced” value with dMPRO cells came to 6.5 µM. Consider `CN[C@@H]1C[C@H]2O[C@@](C)([C@@H]1OC)n1c3ccccc3c3c4c(c5c6ccccc6n2c5c31)C(=O)NC4` [staurosporine], for which, in the data set on Raw264.7 macrophages, the “apoptosis and cell viability, positive controls” value was “apoptosis and loss of cell viability was observed”.

Regarding Triton X-100, the “apoptosis and cell viability, positive controls” value in the data set with Raw264.7 macrophages was “apoptosis and loss of cell viability was observed”.
